“Also recorded” adds a separate entry of the source.
Experiments:
[1] = system: ZR-75-1 cells; assay: Cell proliferation assay (CCK8), ZR-75-1; format: cell-based, human; settings: for proliferation of ZR-75-1 cells: 1 nM-10 μM, 6 days, 10% PRF-CT with 1 nM E2
Method: (§1) Fig. 2 Proliferative response of cancer cells to indicated compounds. a–c the effect of concentrations of different compounds on the growth of the cells. […] Cell growth was measured as described in the “Materials and methods”. The proliferation of cells is expressed as the ratio of the cells compared with the control wells (untreated cells). d, e Influence of different compounds on the cell cycle of MCF-7 cells. MCF-7 cells were cultured in 10% PRF-CT with E2 (1 nM) for 3 days before plating. Cells were seeded in six-well plates and, the next day, starved in PRF for 24 h. Cells were exposed to different compounds at a concentration of 100 nM for 72 h, and then subjected to cell-cycle analysis as described in “Materials and methods”. f MCF-7 cells on poly-L-lysine-coated glass coverslips were exposed to compounds (100 nM) in 10% PRF-CT with 1 nM E2 for 72 h. Control cells were treated with vehicle. DAPI stains DNA, and the secondary anti-mouse antibody to detect the antibody bound to Ki-67 is labeled with the cyanine dye Cy3. The cells were stained with DAPI (blue). Immunofluorescence staining of Ki-67 of cells was observed using fluorescence microscope. Red: Ki-67; blue: nucleus.Typical image is shown. Scale bars: 10 μm. Data represent a mean ± SEM of three independent experiments, each in triplicate; bars, SEM. *P ≤ 0.05 vs. control
(§2) After 24 h, cells were exposed for 3–6 days to various concentrations of compounds (1 nM– 10 μM) or left untreated. The incubation time and the compounds concentrations were chosen based on previous studies[17],[32]–[34]. The effects of the various drugs on cell proliferation at the indicated concentrations (1 nM– 10 μM) were determined by using a CCK8 kit (Dojindo Laboratories, Kumamoto, Japan) according to the manufacturer’s protocol. The absorbance at 450 nm was measured by using a Versamax microplate reader (Thermo Varioskan Flash, USA). Cell growth is expressed as the ratio of the cells compared with the control wells (untreated cells).

[2] = system: ER(+) breast cancer (luminal A tumors); parameters: method as in printed; settings: daily topical application to the affected breast, within 40 days; earlier work of the authors, ref not given; cited from earlier work
[3] = system: MCF-7 cells; assay: Cell proliferation assay (CCK8), MCF-7; format: cell-based, human; settings: for proliferation of MCF-7 cells: 1 nM-10 μM, 6 days, 10% PRF-CT with 1 nM E2
Method: as §1, §2

[4] = system: prostate (P), seminal vesicle (SV), levator ani muscle (LA); assay: Hershberger assay in orchiectomized rats; format: in vivo, Wistar male rats; settings: for androgenic effect (P and SVs): 10 mg/kg s.c. once a day
Method: Fig. 5 Estimation of the androgenic and myotrophic activities of the indicated compounds obtained by the Hershberger Assay. Wistar male rats were orchiectomized (orchi) or sham-operated (intact) under ether anesthesia. After 14 days of endogenous hormonal decline, animals were randomly allocated to treatment and vehicle groups (n = 6). The numbers at the end of the abbreviations correspond to the dose in mg/kg body weight of the animal. Flutamide was given by gavage (10 mg/kg/day). […] Then the animals were treated once a day. The rats were sacrificed after completion of the 12-day treatment. Following removal, wet weights of the prostate (P), seminal vesicle (SV), levator ani muscle (LA) were determined. a Size and shape of P, SV and LA at the end of the treatment period. b, c, and d, influence of treatment with the compounds alone or together with the antiandrogen flutamide at the indicated doses on the weight of the organs (P, SV and LA) of the castrated animals. The mean wet weight is represented by the bars in the graphs. Values are means ± SEM; bars, SEM. *P ≤ 0.05, **P ≤ 0.01 vs. control
The Hershberger assay was performed according to the guidelines of the rodent Hershberger assay. Male Wistar rats (140 g, 5–6 weeks) were orchiectomized (orchi) or sham-operated (intact) under ether anesthesia. After 14 days of endogenous hormonal decline, animals were randomly allocated to treatment and vehicle groups (n = 6); orchi group = orchi rats receiving sham injections; intact group = sham-operated rats receiving sham injections; treatment group = orchi rats receiving drugs injections by subcutaneous. The antiandrogen flutamide given by gavage (10 mg/kg/day). Drugs were dissolved in ethanol and diluted in corn oil. The animals were treated once a day. Rats were sacrificed after completion of the 12-day treatment. Following removal, the wet weights of the P, SV, and LA muscle were determined. The data of tissue weights are presented as mean ± SEM.

[5] = system: MCF-7 cells; assay: Cell cycle analysis by flow cytometry; format: cell-based, human; settings: 100 nM, 72 h
Method: Fig. 2 Proliferative response of cancer cells to indicated compounds. a–c the effect of concentrations of different compounds on the growth of the cells. Cells were cultured in 10% PRF-CT with E2 1 nM (MCF-7 and ZR-75-1) or without E2 (MDA-MB-231) for 3 days before plating. Cells were seeded in 96-well plates and 24 h later they were exposed to different concentrations (1 nM– 10 μM) of compounds for 6 days (MCF-7 and ZR-75-1) or 3 days (MDA-MB-231). Cell growth was measured as described in the “Materials and methods”. The proliferation of cells is expressed as the ratio of the cells compared with the control wells (untreated cells). d, e Influence of different compounds on the cell cycle of MCF-7 cells. MCF-7 cells were cultured in 10% PRF-CT with E2 (1 nM) for 3 days before plating. Cells were seeded in six-well plates and, the next day, starved in PRF for 24 h. Cells were exposed to different compounds at a concentration of 100 nM for 72 h, and then subjected to cell-cycle analysis as described in “Materials and methods”. f MCF-7 cells on poly-L-lysine-coated glass coverslips were exposed to compounds (100 nM) in 10% PRF-CT with 1 nM E2 for 72 h. Control cells were treated with vehicle. DAPI stains DNA, and the secondary anti-mouse antibody to detect the antibody bound to Ki-67 is labeled with the cyanine dye Cy3. The cells were stained with DAPI (blue). Immunofluorescence staining of Ki-67 of cells was observed using fluorescence microscope. Red: Ki-67; blue: nucleus.Typical image is shown. Scale bars: 10 μm. Data represent a mean ± SEM of three independent experiments, each in triplicate; bars, SEM. *P ≤ 0.05 vs. control
Cell cycle kinetics were studied by flow cytometry. MCF-7 cells were cultured in 10% PRF–CT with 1 nM E2 for 3 days prior to seeding on six-well plates (10^5 cells/well). Following seeding of cells, cells were serum starved for 24 h, and then treated with media containing 100 nM of the test compounds for 72 h. Cell-cycle analysis was performed as described by Ando[20].

[6] = system: androgenic organs; parameters: method as in PMID 404132; settings: doses of 3 and 10 mg/kg; cited from earlier work
[7] = system: AR protein in MCF-7 cells; assay: AR protein expression by western blot and immunofluorescence; format: cell-based, human; settings: incubation 3 days
Method: Fig. 3 Influence of indicated compounds on the expression of the AR. […] AR protein expression was analyzed by western blot as described in “Materials and methods”. b The densitometric evaluation of the bands is calculated by ImageJ. The numbers represent the densitometric value relative to untreated control. […] Typical image is shown. Scale bars: 10 μm
Total cell proteins were obtained from 70% confluent cell cultures. Protein extracts of whole cells (50 μg) were denatured, separated by SDS–PAGE and transferred to polyvinylidene fluoride membranes. After blocking with 3% bovine serum albumin in Tris-buffered saline-Tween, membranes were probed overnight at 4 °C. […] After incubation with the appropriate secondary antibody, results were detected using ECL detection reagents. Immunoreactive bands were quantified by densitometry using ImageJ software.
MCF-7 cells were seeded on 24-well plates (2 × 10^4 cells/well) with a poly-L-lysine-coated glass coverslip per well in 10% PRF–CT. […] Cells were visualized with a ×40 objective and a Qimaging digital camera coupled to an Olympus X71 fluorescence microscope using a red fluorescent protein filter.

[8] = molecular target: T1, Rat AR ligand-binding domains (His-GST-ARLBD) (Rattus norvegicus, UniProt P15207); assay: AR fluorescence polarization-based competitive hormone-binding assay (PolarScreen AR Competitor Assay, Red)
T1 construct: purchased Invitrogen
T1 sequence (P15207 651-882 limits assumed): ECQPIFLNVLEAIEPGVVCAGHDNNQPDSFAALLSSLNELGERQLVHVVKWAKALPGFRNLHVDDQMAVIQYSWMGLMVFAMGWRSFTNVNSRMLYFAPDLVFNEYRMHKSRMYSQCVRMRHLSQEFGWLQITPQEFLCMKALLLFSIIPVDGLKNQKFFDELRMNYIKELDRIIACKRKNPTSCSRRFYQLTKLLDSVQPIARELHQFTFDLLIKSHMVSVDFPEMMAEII
From the text: Fig. 4 The affinity of indicated compounds to the AR and their regulation of AR transcriptional activity. a AR fluorescence polarization-based competitive hormone-binding assays. […] Curve fitting was done using GraphPad Prism software (version 7.00). […] ARE(3×)-regulated dual-luciferase activity in U2-OS cells under steroid-free conditions. Cells were transiently transfected with pcDNA3.1-AR and ARE3-luc2P (firefly luciferase reporter plasmids) and the internal normalization control pRL-TK (Renilla luciferase reporter plasmid). Six hours after transfection, cells were treated as indicated. Then they were assayed 48 h after transfection for dual-luciferase activity. […] Briefly, compounds were dissolved in DMSO and mixed at 2% (vol/vol) with AR Red Screening Buffer. The tested compounds were subsequently serially diluted in two-fold increments with AR Red Screening Buffer and mixed 1:1 (vol/vol) with a 2 × AR/Fluormone AL complex. Competition for binding AR between Fluormone AL and the tested compounds was allowed to come to equilibrium for 4 h and not more than 20 h at room temperature in the dark. Fluorescence polarization value (mP) was measured on a fluorescence polarization plate reader (Biotech cytation5). Each compound dose was performed in triplicate, relative error was calculated from the standard error of the mean (SEM), and curve fitting was performed using GraphPad Prism™ 7.0 software.

[9] = 100 nM compound with 100 nM OH-Flutamide

C[C@]12CCC(=O)C(O)=C1CC[C@@H]1[C@@H]2CC[C@]2(C)C(=O)CC[C@@H]12 [4-OHA, 4-hydroxyandrostenedione]
proliferation of ZR-75-1 cells [1]: no effect on the growth
reduction of tumor size (regression) [2]: more than 50%
proliferation of MCF-7 cells [3]: some antiproliferative action
androgenic effect (P and SVs) ([4]; 12 days, castrated rats): no effect on P and SVs
androgenic effect (P and SVs) ([4]; 12 days, castrated rats, listed as Formestane): no effect on androgenic organs whatsoever
influence on the cell cycle (G1/G0 increase, S-phase decrease) [5]: apparently more effective than Exemestane and 17-HEXE

C=C1C[C@@H]2[C@H](CC[C@]3(C)C(=O)CC[C@@H]23)[C@@]2(C)C=CC(=O)C=C12 [Exemestane]
proliferation of ZR-75-1 cells [1]: less effective
androgenic activity [6]: slight androgenic activity
proliferation of MCF-7 cells [3]: less effective
androgenic effect (P and SVs) ([4]; 12 days, castrated rats): slightly androgenic; also recorded: the same effect
expression of the AR protein [7]: considerably more effective than Formestane

CC(C)C(=O)Nc1ccc([N+](=O)[O-])c(C(F)(F)F)c1 [Flutamide, flutamide]
prevention of androgenic effects of the test compounds ([4]; Flutamide by gavage 10 mg/kg/day, concomitant): All androgenic effects can be eliminated

C[C@@H]1CC2=CC(=O)CC[C@@H]2[C@H]2CC[C@@]3(C)[C@@H](CC[C@]3(C)O)[C@@H]21 [Mibolerone]
proliferation of ZR-75-1 cells [1]: antiproliferative in two ER(+)/AR(+) cell lines at all concentrations
IC50 [8]: 11.8 nM
proliferation of MCF-7 cells [3]: antiproliferative in two ER(+)/AR(+) cell lines at all concentrations
effect on P, SVs and LA compared with DHT ([4]; 0.5 mg/kg s.c. once a day, 12 days, castrated rats): more effective than DHT

CC(C)(O)C(=O)Nc1ccc([N+](=O)[O-])c(C(F)(F)F)c1 [OH-Flutamide, hydroxyflutamide]
antiproliferative effect in presence of OH-Flutamide, ZR-75-1 [1, 9]: the antiproliferative effect of DHT is almost completely abolished
antiproliferative effect in presence of OH-Flutamide, MCF-7 [3, 9]: the antiproliferative effect of DHT is almost completely abolished
